Laboratory results: PubChem BioAssay AID248 (DTP/NCI, 2004)
Values joined by “and” are separate entries in the source; they are usually repeats but may differ in a detail not shown here. Equal values may be shown once. Inconclusive results and toxic doses are left out.

Tested on: L1210 leukemia ip in BDF1 mice, survival T/C
Test: NCI In Vivo Anticancer Drug Screen. Data for tumor model L1210 Leukemia (intraperitoneal) in B6D2F1 (BDF1) mice
Conditions: endpoint: mean survival time, higher = longer survival
Method in brief: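 Tumor cells were implanted, animals were treated, and survival was followed. The result divides the treated measurement by the vehicle-control measurement.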

[1] = dose: 100.0 mg/kg/injection, schedule: Q04DX003 (ip), vehicle: Klucel (hydroxypropylcellulose) (HPC)
[2] = dose: 100.0 mg/kg/injection, schedule: Q01DX009 (ip), vehicle: Klucel (hydroxypropylcellulose) (HPC)
[3] = dose: 200.0 mg/kg/injection, schedule: Q01DX009 (ip), vehicle: Klucel (hydroxypropylcellulose) (HPC)
[4] = dose: 200.0 mg/kg/injection, schedule: Q04DX003 (ip), vehicle: Klucel (hydroxypropylcellulose) (HPC)
[5] = dose: 400.0 mg/kg/injection, schedule: Q01DX009 (ip), vehicle: Klucel (hydroxypropylcellulose) (HPC)
[6] = dose: 400.0 mg/kg/injection, schedule: Q04DX003 (ip), vehicle: Klucel (hydroxypropylcellulose) (HPC)
[7] = dose: 100.0 mg/kg/injection, schedule: Q01DX001 (ip), vehicle: other
[8] = dose: 100.0 mg/kg/injection, schedule: Q04DX003 (ip), vehicle: saline
[9] = dose: 200.0 mg/kg/injection, schedule: Q04DX003 (ip), vehicle: saline
[10] = dose: 200.0 mg/kg/injection, schedule: Q01DX001 (ip), vehicle: saline with Tween-80
[11] = dose: 400.0 mg/kg/injection, schedule: Q01DX001 (ip), vehicle: saline with Tween-80
[12] = dose: 100.0 mg/kg/injection, schedule: Q01DX009 (ip), vehicle: saline with Tween-80
[13] = dose: 200.0 mg/kg/injection, schedule: Q01DX009 (ip), vehicle: saline with Tween-80

CC(C)(C)C1CCC(NC(=O)C(Cl)(Cl)Cl)CC1 (centres undefined)
T/C (dose: 6.0 mg/kg/injection, schedule: Q01DX009 (ip), vehicle: Klucel (hydroxypropylcellulose) (HPC)): 100 % of control | T/C (dose: 12.0 mg/kg/injection, schedule: Q01DX009 (ip), vehicle: Klucel (hydroxypropylcellulose) (HPC)): 107 % of control | T/C (dose: 25.0 mg/kg/injection, schedule: Q01DX009 (ip), vehicle: Klucel (hydroxypropylcellulose) (HPC)): 96 % of control and 105 % of control | T/C (dose: 25.0 mg/kg/injection, schedule: Q04DX003 (ip), vehicle: Klucel (hydroxypropylcellulose) (HPC)): 94 % of control | T/C (dose: 50.0 mg/kg/injection, schedule: Q01DX009 (ip), vehicle: Klucel (hydroxypropylcellulose) (HPC)): 86 % of control | T/C (dose: 50.0 mg/kg/injection, schedule: Q04DX003 (ip), vehicle: Klucel (hydroxypropylcellulose) (HPC)): 97 % of control | T/C [1]: 96 % of control

CCCC#C/C=C1/C=CC(=O)O1
T/C (dose: 75.0 mg/kg/injection, schedule: Q01DX001 (ip), vehicle: carboxymethylcellulose (CMC)): 94 % of control | T/C (dose: 150.0 mg/kg/injection, schedule: Q01DX001 (ip), vehicle: carboxymethylcellulose (CMC)): 97 % of control

CC1(C)C2CC3C(C(=O)O)CCCC3(C2)C1Br (centres undefined)
T/C [2]: 103 % of control | T/C [1]: 87 % of control | T/C [3]: 106 % of control | T/C [4]: 90 % of control | T/C [5]: 97 % of control | T/C [6]: 89 % of control

O=C1c2ccccc2CC1(c1ccccc1)c1ccccc1
T/C (dose: 100.0 mg/kg/injection, schedule: Q01DX001 (ip), vehicle: carboxymethylcellulose (CMC)): 91 % of control | T/C (dose: 200.0 mg/kg/injection, schedule: Q01DX001 (ip), vehicle: carboxymethylcellulose (CMC)): 94 % of control | T/C (dose: 400.0 mg/kg/injection, schedule: Q01DX001 (ip), vehicle: carboxymethylcellulose (CMC)): 94 % of control

Cc1ccc(S(=O)(=O)Oc2ccc([N+](=O)[O-])cc2)cc1
T/C [2]: 103 % of control | T/C [1]: 97 % of control | T/C [3]: 97 % of control | T/C [4]: 94 % of control | T/C [5]: 102 % of control | T/C [6]: 100 % of control

OCC1OC(n2c3ccccc3c3ccccc32)C(O)C1O (centres undefined)
T/C (dose: 60.0 mg/kg/injection, schedule: Q04DX002 (ip), vehicle: DMSO): 97 % of control | T/C (dose: 120.0 mg/kg/injection, schedule: Q04DX002 (ip), vehicle: DMSO): 102 % of control

CN(N=O)C(=O)Nc1ccc(NC(=O)N(C)N=O)cc1
T/C (dose: 30.0 mg/kg/injection, schedule: Q01DX Z (ip), vehicle: carboxymethylcellulose (CMC)): 162 % of control | T/C (dose: 40.0 mg/kg/injection, schedule: Q01DX Z (ip), vehicle: carboxymethylcellulose (CMC)): 151 % of control | T/C (dose: 45.0 mg/kg/injection, schedule: Q01DX001 (ip), vehicle: carboxymethylcellulose (CMC)): 120 % of control | T/C (dose: 50.0 mg/kg/injection, schedule: Q01DX Z (ip), vehicle: carboxymethylcellulose (CMC)): 97 % of control | T/C (dose: 360.0 mg/kg/injection, schedule: Q01DX001 (ip), vehicle: carboxymethylcellulose (CMC)): 91 % of control

O=C(Nc1ccc(CCO)cc1)Nc1ccccc1F
T/C [2]: 97 % of control | T/C [3]: 88 % of control | T/C [5]: 111 % of control

Nc1cncc2ncc(-c3ccc(Cl)c(Cl)c3)nc12
T/C (dose: 50.0 mg/kg/injection, schedule: Q01DX001 (ip), vehicle: other): 98 % of control | T/C [7]: 98 % of control | T/C (dose: 200.0 mg/kg/injection, schedule: Q01DX001 (ip), vehicle: other): 98 % of control | T/C (dose: 400.0 mg/kg/injection, schedule: Q01DX001 (ip), vehicle: other): 100 % of control

COc1ccc2c(=O)c3ccccc3oc2c1
T/C [8]: 101 % of control | T/C [9]: 101 % of control | T/C (dose: 400.0 mg/kg/injection, schedule: Q04DX003 (ip), vehicle: saline): 103 % of control

COC(=O)CNCc1ccccc1
T/C (dose: 100.0 mg/kg/injection, schedule: Q01DX009 (ip), vehicle: water): 98 % of control | T/C (dose: 200.0 mg/kg/injection, schedule: Q01DX009 (ip), vehicle: water): 115 % of control | T/C (dose: 400.0 mg/kg/injection, schedule: Q01DX009 (ip), vehicle: water): 100 % of control

N#CCN(CC#N)CCCN(CC#N)CC#N
T/C (dose: 25.0 mg/kg/injection, schedule: Q01DX001 (ip), vehicle: saline with Tween-80): 96 % of control | T/C (dose: 50.0 mg/kg/injection, schedule: Q01DX001 (ip), vehicle: saline with Tween-80): 102 % of control | T/C [10]: 102 % of control and 90 % of control | T/C [11]: 93 % of control

O=CNNC(=O)c1ccccn1
T/C (dose: 50.0 mg/kg/injection, schedule: Q01DX001 (ip), vehicle: water): 108 % of control | T/C (dose: 50.0 mg/kg/injection, schedule: Q01DX009 (ip), vehicle: saline): 98 % of control | T/C (dose: 50.0 mg/kg/injection, schedule: Q04DX003 (ip), vehicle: saline): 100 % of control | T/C (dose: 100.0 mg/kg/injection, schedule: Q01DX001 (ip), vehicle: water): 108 % of control | T/C (dose: 100.0 mg/kg/injection, schedule: Q01DX009 (ip), vehicle: saline): 101 % of control | T/C [8]: 96 % of control | T/C (dose: 200.0 mg/kg/injection, schedule: Q01DX009 (ip), vehicle: saline): 114 % of control | T/C [9]: 109 % of control

CCOc1ccc(/C=C(\C#N)c2cccc(Cl)c2)cc1
T/C [2]: 100 % of control | T/C [3]: 93 % of control | T/C [5]: 91 % of control

CCOC(=O)c1c(-c2ccc([N+](=O)[O-])cc2)c(/C=N\O)n(-c2ccccc2)c1C
T/C (dose: 100.0 mg/kg/injection, schedule: Q04DX002 (ip), vehicle: Klucel (hydroxypropylcellulose) (HPC)): 87 % of control | T/C (dose: 200.0 mg/kg/injection, schedule: Q04DX002 (ip), vehicle: Klucel (hydroxypropylcellulose) (HPC)): 94 % of control

CC(C)N(Cl)S(C)(=O)=O
T/C [8]: 89 % of control

COC(=O)c1ccc2c(c1)OCO2
T/C (dose: 100.0 mg/kg/injection, schedule: Q01DX001 (ip), vehicle: saline with Tween-80): 100 % of control | T/C (dose: 100.0 mg/kg/injection, schedule: Q01DX009 (ip), vehicle: saline sonified): 94 % of control | T/C [10]: 103 % of control | T/C (dose: 200.0 mg/kg/injection, schedule: Q01DX009 (ip), vehicle: saline sonified): 100 % of control | T/C [11]: 95 % of control | T/C (dose: 400.0 mg/kg/injection, schedule: Q01DX009 (ip), vehicle: saline sonified): 102 % of control

CC(=O)OC1CCC(C(C)(C)C)CC1 (centres undefined)
T/C [12]: 98 % of control | T/C [13]: 95 % of control

CC(C)(C)C(=O)Nc1n[nH]c(C#N)c1C#N
T/C (dose: 50.0 mg/kg/injection, schedule: Q04DX002 (ip), vehicle: other): 95 % of control | T/C (dose: 100.0 mg/kg/injection, schedule: Q04DX002 (ip), vehicle: other): 106 % of control | T/C (dose: 200.0 mg/kg/injection, schedule: Q04DX002 (ip), vehicle: other): 113 % of control

COc1cc(C(=O)NNS(=O)(=O)c2ccccc2)cc(OCc2ccccc2)c1OC
T/C (dose: 100.0 mg/kg/injection, schedule: Q04DX002 (ip), vehicle: saline): 97 % of control | T/C (dose: 200.0 mg/kg/injection, schedule: Q04DX002 (ip), vehicle: saline): 97 % of control | T/C (dose: 400.0 mg/kg/injection, schedule: Q04DX002 (ip), vehicle: saline): 95 % of control

c1ccc(CCc2ccncc2)cc1
T/C [12]: 87 % of control | T/C [13]: 88 % of control | T/C (dose: 400.0 mg/kg/injection, schedule: Q01DX009 (ip), vehicle: saline with Tween-80): 86 % of control

Cc1ccc(NC(=O)c2ccccc2-c2ccccc2C(=O)Nc2ccc(C)cc2)cc1
T/C [7]: 91 % of control

CCOC(CNC(=O)c1ccc(S(=O)(=O)F)cc1)OCC
T/C (dose: 100.0 mg/kg/injection, schedule: Q04DX003 (ip), vehicle: alcohol): 107 % of control | T/C (dose: 200.0 mg/kg/injection, schedule: Q04DX003 (ip), vehicle: alcohol): 101 % of control | T/C (dose: 400.0 mg/kg/injection, schedule: Q04DX003 (ip), vehicle: alcohol): 98 % of control

Clc1ccc2c(c1)C(=P(c1ccccc1)(c1ccccc1)c1ccccc1)c1cc(Cl)cc(Cl)c1-2
T/C (dose: 100.0 mg/kg/injection, schedule: Q01DX001 (ip), vehicle: Klucel (hydroxypropylcellulose) (HPC)): 96 % of control | T/C [1]: 102 % of control | T/C (dose: 200.0 mg/kg/injection, schedule: Q01DX001 (ip), vehicle: Klucel (hydroxypropylcellulose) (HPC)): 96 % of control | T/C [4]: 95 % of control | T/C (dose: 400.0 mg/kg/injection, schedule: Q01DX001 (ip), vehicle: Klucel (hydroxypropylcellulose) (HPC)): 91 % of control | T/C [6]: 93 % of control
